Measurements from patent publication US10398663B2, “Mitochondrial delivery of 3-bromopyruvate” (priority 2014, dated 2019).

How the values were obtained:
Format in all cases: cell-based, Human
PC3 cells [1] = assay: MTT assay, PC3 cells; settings: with respect to 3-BP, 72 h
Procedure: (§1) Human prostate cancer PC3, DU145 cells and RAW 264.7 macrophages were procured from the American type culture collection (ATCC). DU145 cells were grown at 37° C. in 5% CO2 in Eagle's minimum essential medium (EMEM) supplemented with 10% fetal bovine serum (FBS) and 1% penicillin/streptomycin. PC3 cells were grown in Roswell Park Memorial Institute (RPMI) 1640 medium supplemented with 10% FBS and 1% penicillin/streptomycin. RAW 264.7 macrophages were cultured in RPMI media supplemented with 10% FBS and 1% penicillin/streptomycin. Cells were passed every 3 to 4 days and restarted from frozen stocks upon reaching pass number 20.
(§2) Cytotoxicity profiles of T-AuNPs, NT-AuNPs, T-3-BPAuNPs, NT-3-BP-AuNPs, and 3-BP were studied using the MTT assay against prostate cancer PC3 and DU145 cell lines. Cells (2000 cells/well) were seeded on a 96-well plate in 100 μL of desired medium and incubated for 24 h. The cells were then treated with different constructs at varying concentrations and incubated for 12 h at 37° C. and the media was changed. […] The medium was removed, the cells were lysed with 100 μL of DMSO, and the absorbance of the purple formazan was recorded at 550 nm using a Bio-Tek Synergy HT microplate reader and background absorbance was measured at 800 nm. […] Cytotoxicity was expressed as mean percentage […] relative to the unexposed control±standard deviation (SD). […]

DU145 cells = assay: MTT assay, DU145 cells; settings: with respect to 3-BP, 72 h
Procedure: as §1, §2

PC3 cells [2] = assay: Apoptosis detection by flow cytometry (Annexin V-PI); settings: 6 h, dark
Procedure: PC3 cells were plated at a density of 1×10^6 cells/mL and allowed to grow for 14 h. Media was changed and cells were treated with T-AuNP (1 mg/mL), NT-AuNP (1 mg/mL), T-3-BP-AuNP (14.1 μg/mL with respect to NP, 10 μM with respect to 3-BP), NT-3-BP-AuNP (13.7 μg/mL with respect to NP, 10 μM with respect to 3-BP), free 3-BP (10 μM or 1 mM) for 6 h at 37° C. As positive controls, etoposide (100 μM, incubation time: 12 h) for apoptosis and H2O2 (1 mM, incubation time: 45 min) for necrosis were used. For apoptosis detection after laser treatment, cells were treated with T-AuNP (1 mg/mL), NT-AuNP (1 mg/mL), T-3-BP-AuNP (14.1 μg/mL with respect to NP, 10 μM with respect to 3-BP), NT-3-BP-AuNP (13.7 μg/mL with respect to NP, 10 μM with respect to 3-BP), free 3-BP (10 μM) for 4 h at 37° C., irradiated with laser of 660 nm for 1 min, and further incubated for 12 h. […] Cells were counted and resuspended in 1× annexinbinding buffer at a density of ˜1×10^6 cells/mL preparing a sufficient volume to have 100 μL per assay. To 100 μL of cell suspension, 5 μL Alexa Fluor® 488 annexin V and 1 μL 100 μg/mL PI working solution were added, incubated for 15 min at room temperature, followed by addition of 400 μL 1× annexin-binding buffer, gently mixing in ice, and the samples were analyzed on the flow cytometer immediately.

PC3 cells [3] = assay: Lactate determination; settings: 10 μM with respect to 3-BP, 6 h
Procedure: PC3 cells were seeded at a density of 1×10^6 cells/mL and allowed to grow for 12 h at 37° C. under 5% CO2. Cells were treated with T-AuNP (1 mg/mL), NT-AuNP (1 mg/mL), T-3-BP-AuNP (14.1 μg/mL with respect to NP, 10 μM with respect to 3-BP), NT-3-BP-AuNP (13.7 μg/mL with respect to NP, 10 μM with respect to 3-BP), free 3-BP (10 μM) for 6 h at 37° C. After 6 h, the media was removed and the cells were homogenized. The lysate and the media supernatant were added to the enzyme and substrate working reagent mixture and incubated for 30 min. Lactate concentration was measured using Bio-Tek Synergy HT microplate reader at 450 nm and comparing to a standard curve.

PC3 cells [4] = assay: CellTiter-Glo luminescent ATP quantification; settings: 10 μM with respect to 3-BP, 6 h
Procedure: PC3 cells were seeded at a density of 1×10^6 cells/mL in a 12 well plate and allowed to grow for 12 h at 37° C. under 5% CO2. Cells were treated with T-AuNP (1 mg/mL), NT-AuNP (1 mg/mL), T-3-BP-AuNP (14.1 μg/mL with respect to NP, 10 μM with respect to 3-BP), NT-3-BP-AuNP (13.7 μg/mL with respect to NP, 10 μM with respect to 3-BP), free 3-BP (10 μM) for 6 h at 37° C. in 5% CO2 atmosphere. Control wells containing medium without cells were used to obtain background luminescence value. Plates were then equilibrated at room temperature for ˜30 min. A volume of CellTiter-Glo reagent equal to the volume of cell culture medium present in each well was added, this mixtures were mixed for 2 min in a shaker to induce cell lysis. The plates were incubated at room temperature for additional 10 min to stabilize luminescent signal. Luminescence was recorded using a plate reader. ATP quantification was carried out from a standard curve using ATP disodium salt hydrate.

PC3 cells [5] = assay: Bioenergetic assay (Seahorse XF24, ECAR and OCR); settings: 10 μM with respect to 3-BP, 6 h
Procedure: Prior to the assay, XF sensor cartridges were hydrated. To each well of an XF utility plate, 1 mL of Seahorse Bioscience calibrant was added and the XF sensor cartridges were placed on top of the utility plate, and kept at 37° C. incubator without CO2 for a minimum of 12 h. PC3 cells were cultured in XF24-well cell culture microplates (Seahorse Bioscience) at a density of 5×10^4 cells/well (0.32 cm2) in 200 μL growth medium and then incubated for 24 h at 37° C. in 5% CO2 atmosphere. The three key parameters of glycolytic function: glycolysis, glycolytic capacity, and glycolytic reserve were assessed using a Seahorse XF glycolysis stress kit. After the cells were attached, an additional 100 μL growth medium was added and the cells were incubated for 24 h at 37° C. in 5% CO2 atmosphere. […] The OCR and the ECAR were measured simultaneously for 16 min to establish a baseline rate. Glycolysis, glycolytic capacity, and glycolytic reserve were calculated by subtracting the average rates before and after the addition of glucose (10 mM), ATP synthase inhibitor oligomycin (1.0 μM), and 2-deoxy-D-glucose (2-DG) (100 mM). These three compounds were injected consecutively with specific time gap and ECAR values were measured after each injection. […]

For `O=C(O)C(=O)CBr` [3-BP, 3-bromopyruvate], the IC50 (PC3 cells [1]) was 271 ± 9 µM, the IC50 (DU145 cells) was 541 ± 37 µM and the apoptotic activity (PC3 cells [2]; 10 μM) was “unable to show any apoptotic activity”. The apoptotic activity (PC3 cells [2]; 1 mM) was “significant apoptosis”, the extracellular lactate level (PC3 cells [3]) was “declined” and the intracellular lactate level (PC3 cells [3]) was “declined”. The “level of ATP” value (PC3 cells [4]) was “decrease” and the “glycolysis inhibition (ECAR response to glucose)” value (PC3 cells [5]) was “did not show any glycolysis inhibitory effect”.
